Results as given in PubChem BioAssay AID248 (DTP/NCI, 2004).
Several values for one entry are separate records, joined by “and”; a condition that tells them apart may be missing. Equal entries are not always repeated. Inconclusive results and toxic doses are left out. Rule as the data show it: active = T/C of 150% or more; inactive = T/C below 125%.

System: L1210 leukemia ip in BDF1 mice, survival T/C
Test: NCI In Vivo Anticancer Drug Screen. Data for tumor model L1210 Leukemia (intraperitoneal) in B6D2F1 (BDF1) mice
Details: endpoint: mean survival time, higher = longer survival
Procedure, shortened: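 Each compound was tested against a transplantable tumor grown in mice. The endpoint was survival, with treated animals benchmarked against vehicle controls as a simple ratio.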

[1] = dose: 50.0 mg/kg/injection, schedule: Q01DX009 (ip), vehicle: saline with Tween-80
[2] = dose: 100.0 mg/kg/injection, schedule: Q01DX009 (ip), vehicle: saline with Tween-80
[3] = dose: 100.0 mg/kg/injection, schedule: Q04DX003 (ip), vehicle: saline with Tween-80
[4] = dose: 200.0 mg/kg/injection, schedule: Q01DX009 (ip), vehicle: saline with Tween-80
[5] = dose: 200.0 mg/kg/injection, schedule: Q04DX003 (ip), vehicle: saline with Tween-80
[6] = dose: 100.0 mg/kg/injection, schedule: Q04DX002 (ip), vehicle: Klucel (hydroxypropylcellulose) (HPC)
[7] = dose: 200.0 mg/kg/injection, schedule: Q04DX002 (ip), vehicle: Klucel (hydroxypropylcellulose) (HPC)
[8] = dose: 400.0 mg/kg/injection, schedule: Q04DX002 (ip), vehicle: Klucel (hydroxypropylcellulose) (HPC)
[9] = dose: 75.0 mg/kg/injection, schedule: Q01DX001 (ip), vehicle: carboxymethylcellulose (CMC)
[10] = dose: 100.0 mg/kg/injection, schedule: Q04DX003 (ip), vehicle: saline
[11] = dose: 200.0 mg/kg/injection, schedule: Q04DX003 (ip), vehicle: saline
[12] = dose: 400.0 mg/kg/injection, schedule: Q04DX003 (ip), vehicle: saline
[13] = dose: 100.0 mg/kg/injection, schedule: Q01DX009 (ip), vehicle: saline
[14] = dose: 200.0 mg/kg/injection, schedule: Q01DX009 (ip), vehicle: saline
[15] = dose: 400.0 mg/kg/injection, schedule: Q01DX009 (ip), vehicle: saline
[16] = dose: 50.0 mg/kg/injection, schedule: Q01DX009 (ip), vehicle: Klucel (hydroxypropylcellulose) (HPC)
[17] = dose: 100.0 mg/kg/injection, schedule: Q01DX001 (ip), vehicle: saline
[18] = dose: 200.0 mg/kg/injection, schedule: Q01DX001 (ip), vehicle: saline
[19] = dose: 400.0 mg/kg/injection, schedule: Q01DX001 (ip), vehicle: saline
[20] = dose: 50.0 mg/kg/injection, schedule: Q01DX001 (ip), vehicle: saline
[21] = dose: 100.0 mg/kg/injection, schedule: Q01DX001 (ip), vehicle: carboxymethylcellulose (CMC)
[22] = dose: 200.0 mg/kg/injection, schedule: Q01DX001 (ip), vehicle: carboxymethylcellulose (CMC)
[23] = dose: 400.0 mg/kg/injection, schedule: Q01DX001 (ip), vehicle: carboxymethylcellulose (CMC)

Measured: T/C

O=C(O)C1CCCCC1C(=O)Nc1ccc(Cl)cc1 (stereo not given)
inactive: [1] 88 % of control | [2] 87 % of control | [3] 96 % of control | [4] 98 % of control | [5] 97 % of control

Nc1ccc(C(=O)OCCCCC2CCCC2N)cc1 (stereo not given)
inactive: dose: 75.0 mg/kg/injection, schedule: Q01DX001 (ip), vehicle: saline 97 % of control | dose: 150.0 mg/kg/injection, schedule: Q01DX001 (ip), vehicle: saline 113 % of control

CC(C)C(=O)NCc1ccccc1
inactive: [6] 104 % of control | [7] 101 % of control | [8] 90 % of control

COc1ccc2nc3cc(Cl)ccc3c(Nc3ccc(O)c(CNCCO)c3)c2c1
inactive: [9] 101 % of control

O=c1oc2ccc(O)cc2c2ccccc12
inactive: [10] 105 % of control | [11] 97 % of control | [12] 103 % of control

O=S1(=O)CCOCC1
inactive: dose: 100.0 mg/kg/injection, schedule: Q01DX009 (ip), vehicle: saline sonified 105 % of control | [10] 97 % of control | dose: 200.0 mg/kg/injection, schedule: Q01DX009 (ip), vehicle: saline sonified 97 % of control | [11] 95 % of control | dose: 400.0 mg/kg/injection, schedule: Q01DX009 (ip), vehicle: saline sonified 102 % of control | [12] 105 % of control

NC(=O)CCCN1CCCC1=O
inactive: [13] 100 % of control | [10] 100 % of control | [14] 111 % of control | [11] 101 % of control | [15] 110 % of control | [12] 97 % of control

O=C(O)C(O)CBr (stereo not given)
inactive: dose: 12.5 mg/kg/injection, schedule: Q01DX009 (ip), vehicle: saline with Tween-80 103 % of control | dose: 25.0 mg/kg/injection, schedule: Q01DX009 (ip), vehicle: saline with Tween-80 95 % of control | [1] 98 % of control

CCC(C)C(CCN(C)C)(CNC(=O)CN(CC)CC)c1cccc2ccccc12 (stereo not given)
inactive: [13] 96 % of control | [14] 91 % of control

COc1ccc(-c2c(CC(=O)O)c3cc(OC)ccc3n2Cc2ccc(Cl)cc2)cc1
inactive: dose: 65.0 mg/kg/injection, schedule: Q01DX Z (ip), vehicle: carboxymethylcellulose (CMC) 94 % of control | dose: 125.0 mg/kg/injection, schedule: Q01DX Z (ip), vehicle: carboxymethylcellulose (CMC) 98 % of control | dose: 250.0 mg/kg/injection, schedule: Q01DX Z (ip), vehicle: carboxymethylcellulose (CMC) 107 % of control | dose: 500.0 mg/kg/injection, schedule: Q01DX Z (ip), vehicle: carboxymethylcellulose (CMC) 94 % of control | dose: 750.0 mg/kg/injection, schedule: Q01DX Z (ip), vehicle: carboxymethylcellulose (CMC) 90 % of control | dose: 875.0 mg/kg/injection, schedule: Q01DX Z (ip), vehicle: carboxymethylcellulose (CMC) 91 % of control

O=S(/C=C/c1ccccc1)c1ccc(Br)cc1 (stereo not given)
inactive: [10] 100 % of control | [11] 93 % of control | [12] 100 % of control

COc1ccc(COC(=O)Nc2ccccc2)cc1
inactive: [9] 101 % of control | dose: 150.0 mg/kg/injection, schedule: Q01DX001 (ip), vehicle: carboxymethylcellulose (CMC) 98 % of control

CC(C)(SCCc1ccc([N+](=O)[O-])cc1)C(N)C(=O)O (stereo not given)
inactive: dose: 12.0 mg/kg/injection, schedule: Q01DX009 (ip), vehicle: Klucel (hydroxypropylcellulose) (HPC) 93 % of control | dose: 12.5 mg/kg/injection, schedule: Q04DX003 (ip), vehicle: Klucel (hydroxypropylcellulose) (HPC) 91 % of control | dose: 25.0 mg/kg/injection, schedule: Q01DX009 (ip), vehicle: Klucel (hydroxypropylcellulose) (HPC) 104 % of control | dose: 25.0 mg/kg/injection, schedule: Q04DX003 (ip), vehicle: Klucel (hydroxypropylcellulose) (HPC) 91 % of control | [16] 103 % of control | dose: 50.0 mg/kg/injection, schedule: Q04DX003 (ip), vehicle: Klucel (hydroxypropylcellulose) (HPC) 93 % of control

O=C1CC2CC1C(C(=O)O)C2C(=O)O (stereo not given)
inactive: [17] 98 % of control | [13] 96 % of control | [18] 96 % of control | [14] 96 % of control | [19] 96 % of control and 98 % of control | [15] 98 % of control

COc1ccc(CN2CCCN(Cc3ccc(OC)cc3OC)C2c2cccc(OC)c2O)c(OC)c1
inactive: [20] 95 % of control | [17] 92 % of control | [18] 92 % of control | [19] 95 % of control

CCC1C2Cc3ccc(O)cc3C1(CC)CCN2C (stereo not given)
inactive: [20] 101 % of control | [17] 101 % of control

Cc1nc2c(NC(=O)C(F)(F)F)nn(C)c2nc1C
inactive: [2] 94 % of control | [3] 100 % of control | [4] 92 % of control | [5] 100 % of control | dose: 400.0 mg/kg/injection, schedule: Q04DX003 (ip), vehicle: saline with Tween-80 106 % of control

Cc1c(C)c2c(c(C)c1O)CCC(C)(C)O2
inactive: [16] 97 % of control | dose: 100.0 mg/kg/injection, schedule: Q01DX009 (ip), vehicle: Klucel (hydroxypropylcellulose) (HPC) 100 % of control | dose: 200.0 mg/kg/injection, schedule: Q01DX009 (ip), vehicle: Klucel (hydroxypropylcellulose) (HPC) 103 % of control

CCCC(=O)c1c(O)cc(O)cc1O
inactive: [21] 98 % of control | [22] 96 % of control | [23] 93 % of control

O=[N+]([O-])c1ccc2sc3ccccc3c2c1
inactive: [6] 108 % of control | [7] 97 % of control | [8] 101 % of control

CCOC(=O)C(CC(C(=O)OCC)C(=O)OCC)C(=O)OCC
inactive: dose: 75.0 mg/kg/injection, schedule: Q01DX009 (ip), vehicle: saline 98 % of control | [10] 113 % of control | dose: 150.0 mg/kg/injection, schedule: Q01DX009 (ip), vehicle: saline 98 % of control | [11] 97 % of control | dose: 300.0 mg/kg/injection, schedule: Q01DX009 (ip), vehicle: saline 95 % of control | [12] 97 % of control

O=C1C=CC(=O)N1c1ccnc(N2C(=O)C=CC2=O)c1
inactive: [21] 86 % of control | [22] 97 % of control | [23] 105 % of control

Oc1ccc(-c2ccccc2)cc1Br
inactive: [3] 101 % of control | [5] 111 % of control

O=C(CC(Br)C(=O)c1ccccc1)c1ccccc1 (stereo not given)
inactive: [2] 97 % of control | [4] 97 % of control | dose: 400.0 mg/kg/injection, schedule: Q01DX009 (ip), vehicle: saline with Tween-80 94 % of control

O=S1(=O)CCS(=O)(=O)C12CCCCC2
inactive: [17] 98 % of control | [18] 107 % of control | [19] 90 % of control

O=C1CN(CCN2CC(=O)NC2=S)C(=S)N1
inactive: dose: 100.0 mg/kg/injection, schedule: Q04DX002 (ip), vehicle: saline with Tween-80 95 % of control | dose: 200.0 mg/kg/injection, schedule: Q04DX002 (ip), vehicle: saline with Tween-80 100 % of control

Cc1cc(/C=C\c2ccc3ccccc3[n+]2C)c(O)c2ncccc12
inactive: [21] 110 % of control | [22] 93 % of control
